ChEMBL document CHEMBL4229455, “Synthesis and anticancer activity of novel bisindolylhydroxymaleimide derivatives with potent GSK-3 kinase inhibition” (Bioorg Med Chem, 2018)

Legend:
[1] = biological target: Dual specificity tyrosine-phosphorylation-regulated kinase 1A (Rattus norvegicus) (UniProt Q63470); test: Inhibition of recombinant rat DYRK1A kinase domain expressed in bacteria assessed as residual activity at 10 uM using KKISGRLSPIMTEQ as substrate in presence of [gamma-33P]ATP
MDA-MB-435 = test: Cytotoxicity against human MDA-MB-435 cells assessed as cell growth at 10 uM after 48 hrs by SRB assay relative to control; assay type: functional; conditions: MDA-MB-435, 48 h, read-out: Activity
Sus scrofa domesticus = organism: Sus scrofa domesticus; test: Inhibition of domestic porcine brain full length […] assessed as residual activity at 10 uM using RRKHAAIGSpAYSITA as substrate in presence of [gamma-33P]ATP
UO-31 = test: Cytotoxicity against human UO31 cells assessed as cell growth at 10 uM after 48 hrs by SRB assay relative to control; assay type: functional; conditions: UO-31, 48 h, read-out: Activity
[2] = biological target: Glycogen synthase kinase-3 (Sus scrofa) (UniProt B2LUN4+I6LNT8); test: Inhibition of domestic porcine brain full length GSK-3alpha/beta assessed as residual activity at 10 uM using GS-1 as substrate in presence of [gamma-33P]ATP; conditions: Sus scrofa domesticus
SN12C = test: Cytotoxicity against human SN12C cells assessed as cell growth at 10 uM after 48 hrs by SRB assay relative to control; assay type: functional; conditions: read-out: Activity
HOP-62 = test: Cytotoxicity against human HOP62 cells assessed as cell growth at 10 uM after 48 hrs by SRB assay relative to control; assay type: functional; conditions: HOP-62, 48 h, read-out: Activity
SW-620 = test: Cytotoxicity against human SW620 cells assessed as cell growth at 10 uM after 48 hrs by SRB assay relative to control; assay type: functional; conditions: SW-620, 48 h, read-out: Activity
[3] = biological target: Dual specificity tyrosine-phosphorylation-regulated kinase 1A (Rattus norvegicus, UniProt Q63470); test: Inhibition of recombinant rat DYRK1A kinase domain expressed in bacteria using KKISGRLSPIMTEQ as substrate in presence of [gamma-33P]ATP
MCF7 = test: Cytotoxicity against human MCF7 cells assessed as cell growth at 10 uM after 48 hrs by SRB assay relative to control; assay type: functional; conditions: MCF7, 48 h, read-out: Activity
[4] = biological target: T1, Receptor-interacting serine/threonine-protein kinase 3 (Homo sapiens, UniProt Q9Y572); test: Inhibition of recombinant full length human RIPK3 expressed in baculovirus infected Sf9 insect cells assessed as residual activity at 10 uM using MBP as substrate in presence of [gamma-33P]ATP
Target sequence in this assay (Q9Y572 whole entry, looked up): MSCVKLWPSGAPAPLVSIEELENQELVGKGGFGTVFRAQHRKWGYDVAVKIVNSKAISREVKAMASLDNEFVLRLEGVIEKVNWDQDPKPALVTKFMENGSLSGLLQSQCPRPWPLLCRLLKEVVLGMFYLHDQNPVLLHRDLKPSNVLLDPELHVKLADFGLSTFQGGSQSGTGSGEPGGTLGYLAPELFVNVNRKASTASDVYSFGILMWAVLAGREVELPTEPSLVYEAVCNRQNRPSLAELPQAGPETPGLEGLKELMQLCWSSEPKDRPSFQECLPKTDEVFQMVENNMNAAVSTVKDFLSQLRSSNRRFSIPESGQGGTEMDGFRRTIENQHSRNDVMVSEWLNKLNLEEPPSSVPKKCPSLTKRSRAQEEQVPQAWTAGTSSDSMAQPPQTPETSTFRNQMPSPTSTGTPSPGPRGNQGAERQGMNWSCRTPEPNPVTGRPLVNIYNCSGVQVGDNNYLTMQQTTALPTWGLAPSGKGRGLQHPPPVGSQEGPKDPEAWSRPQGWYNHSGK

Hs-578T = test: Cytotoxicity against human Hs 578T cells assessed as cell growth at 10 uM after 48 hrs by SRB assay relative to control; assay type: functional; conditions: read-out: Activity
[5] = biological target: Serine/threonine-protein kinase pim-1 (Homo sapiens, UniProt P11309); test: Inhibition of recombinant full length human PIM1 expressed in bacteria assessed as residual activity at 10 uM using histone H1 as substrate in presence of [gamma-33P]ATP
[6] = biological target: Cyclin-dependent kinase 5/CDK5 activator 1 (Homo sapiens) (UniProt Q00535+Q15078); test: Inhibition of recombinant full length human CDK5/p25 expressed in bacteria assessed as residual activity at 10 uM using histone H1 as substrate in presence of [gamma-33P]ATP
Aurora kinase B = Aurora kinase B (Homo sapiens, UniProt Q96GD4); test: Inhibition of recombinant full length human aurora B expressed in baculovirus infected Sf9 insect cells assessed as residual activity at 10 uM using MBP as substrate in presence of [gamma-33P]ATP
TK-10 = test: Cytotoxicity against human TK10 cells assessed as cell growth at 10 uM after 48 hrs by SRB assay relative to control; assay type: functional; conditions: TK-10, 48 h, read-out: Activity
HCT-116 = test: Cytotoxicity against human HCT116 cells assessed as cell growth at 10 uM after 48 hrs by SRB assay relative to control; assay type: functional; conditions: HCT-116, 48 h, read-out: Activity
SK-MEL-28 = test: Cytotoxicity against human SK-MEL-28 cells assessed as cell growth at 10 uM after 48 hrs by SRB assay relative to control; assay type: functional; conditions: SK-MEL-28, 48 h, read-out: Activity
OVCAR-5 = test: Cytotoxicity against human OVCAR5 cells assessed as cell growth at 10 uM after 48 hrs by SRB assay relative to control; assay type: functional; conditions: OVCAR-5, 48 h, read-out: Activity
SK-MEL-5 = test: Cytotoxicity against human SK-MEL-5 cells assessed as cell growth at 10 uM after 48 hrs by SRB assay relative to control; assay type: functional; conditions: SK-MEL-5, 48 h, read-out: Activity
NCI-H460 = test: Cytotoxicity against human NCI-H460 cells assessed as cell growth at 10 uM after 48 hrs by SRB assay relative to control; assay type: functional; conditions: NCI-H460, 48 h, read-out: Activity
SK-OV-3 = test: Cytotoxicity against human SKOV3 cells assessed as cell growth at 10 uM after 48 hrs by SRB assay relative to control; assay type: functional; conditions: SK-OV-3, 48 h, read-out: Activity
[7] = biological target: CDK2/Cyclin A2 (Homo sapiens) (UniProt P24941+P20248); test: Inhibition of full length human CDK2/cyclin A assessed as residual activity at 10 uM using histone H1 as substrate in presence of [gamma-33P]ATP; assay type: protein-complex assay
SF-268 = test: Cytotoxicity against human SF268 cells assessed as cell growth at 10 uM after 48 hrs by SRB assay relative to control; assay type: functional; conditions: SF-268, 48 h, read-out: Activity
CDK9/cyclin T1 = CDK9/cyclin T1 (Homo sapiens, UniProt P50750); test: Inhibition of recombinant full length human CDK9/cyclin T expressed in baculovirus infected Sf9 insect cells using YSPTSPSYSPTSPSYSPTSPSKKKK as substrate in presence of [gamma-33P]ATP
SNB-75 = test: Cytotoxicity against human SNB75 cells assessed as cell growth at 10 uM after 48 hrs by SRB assay relative to control; assay type: functional; conditions: SNB-75, 48 h, read-out: Activity
SR = test: Cytotoxicity against human SR cells assessed as cell growth at 10 uM after 48 hrs by SRB assay relative to control; assay type: functional; conditions: read-out: Activity
[8] = biological target: T1, Receptor-interacting serine/threonine-protein kinase 3; test: Inhibition of recombinant full length human RIPK3 expressed in baculovirus infected Sf9 insect cells using MBP as substrate in presence of [gamma-33P]ATP
Target sequence in this assay (Q9Y572 whole entry): as the sequence (Q9Y572 whole entry, looked up) above

LOX IMVI = test: Cytotoxicity against human LOXIMVI cells assessed as cell growth at 10 uM after 48 hrs by SRB assay relative to control; assay type: functional; conditions: read-out: Activity
RPMI-8226 = test: Cytotoxicity against human RPMI8226 cells assessed as cell growth at 10 uM after 48 hrs by SRB assay relative to control; assay type: functional; conditions: RPMI-8226, 48 h, read-out: Activity
HL-60(TB) = test: Cytotoxicity against human HL-60(TB) cells assessed as cell growth at 10 uM after 48 hrs by SRB assay relative to control; assay type: functional; conditions: HL-60, 48 h, read-out: Activity

Chain of CDK9/cyclin T1 (O60563 whole entry): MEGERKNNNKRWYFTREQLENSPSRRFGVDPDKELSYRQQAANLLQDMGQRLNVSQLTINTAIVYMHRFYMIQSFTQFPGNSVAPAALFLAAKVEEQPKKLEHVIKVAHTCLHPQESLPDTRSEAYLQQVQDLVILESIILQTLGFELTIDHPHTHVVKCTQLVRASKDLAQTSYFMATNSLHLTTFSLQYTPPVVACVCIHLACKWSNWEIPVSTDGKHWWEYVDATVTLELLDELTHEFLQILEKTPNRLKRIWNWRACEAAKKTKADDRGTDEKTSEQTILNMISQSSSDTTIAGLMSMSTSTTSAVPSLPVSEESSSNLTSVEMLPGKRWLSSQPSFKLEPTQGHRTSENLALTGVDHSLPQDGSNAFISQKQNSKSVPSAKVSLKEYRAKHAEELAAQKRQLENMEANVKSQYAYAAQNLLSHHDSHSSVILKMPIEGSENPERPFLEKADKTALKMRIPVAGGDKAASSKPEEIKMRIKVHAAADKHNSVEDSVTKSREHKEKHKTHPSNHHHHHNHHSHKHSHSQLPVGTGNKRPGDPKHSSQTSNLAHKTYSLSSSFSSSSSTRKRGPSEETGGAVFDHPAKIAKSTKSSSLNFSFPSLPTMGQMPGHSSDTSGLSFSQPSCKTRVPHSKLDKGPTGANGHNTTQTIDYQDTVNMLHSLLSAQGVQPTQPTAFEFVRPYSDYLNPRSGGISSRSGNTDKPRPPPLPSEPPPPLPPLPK
Chain of CDK9/cyclin T1 (P50750 whole entry): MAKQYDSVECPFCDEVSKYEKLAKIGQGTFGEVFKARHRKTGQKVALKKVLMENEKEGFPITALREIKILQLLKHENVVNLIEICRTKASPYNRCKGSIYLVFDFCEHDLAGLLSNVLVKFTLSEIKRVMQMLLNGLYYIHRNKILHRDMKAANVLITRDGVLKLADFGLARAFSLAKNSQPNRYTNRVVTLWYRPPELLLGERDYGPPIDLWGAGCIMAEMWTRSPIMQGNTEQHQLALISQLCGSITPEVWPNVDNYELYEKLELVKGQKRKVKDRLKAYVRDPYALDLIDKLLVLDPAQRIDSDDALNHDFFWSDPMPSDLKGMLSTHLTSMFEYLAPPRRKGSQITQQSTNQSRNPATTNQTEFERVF
Chain of Aurora kinase B (Q96GD4 whole entry): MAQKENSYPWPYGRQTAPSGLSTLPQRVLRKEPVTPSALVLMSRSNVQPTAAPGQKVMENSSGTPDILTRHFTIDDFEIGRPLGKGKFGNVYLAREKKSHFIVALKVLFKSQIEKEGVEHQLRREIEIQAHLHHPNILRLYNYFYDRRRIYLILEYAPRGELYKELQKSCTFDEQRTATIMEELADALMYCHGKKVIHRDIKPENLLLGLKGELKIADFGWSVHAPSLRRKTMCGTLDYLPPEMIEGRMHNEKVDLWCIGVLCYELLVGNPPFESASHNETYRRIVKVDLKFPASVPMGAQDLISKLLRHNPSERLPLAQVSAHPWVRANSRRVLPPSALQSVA
Chain of Serine/threonine-protein kinase pim-1 (P11309 whole entry, looked up): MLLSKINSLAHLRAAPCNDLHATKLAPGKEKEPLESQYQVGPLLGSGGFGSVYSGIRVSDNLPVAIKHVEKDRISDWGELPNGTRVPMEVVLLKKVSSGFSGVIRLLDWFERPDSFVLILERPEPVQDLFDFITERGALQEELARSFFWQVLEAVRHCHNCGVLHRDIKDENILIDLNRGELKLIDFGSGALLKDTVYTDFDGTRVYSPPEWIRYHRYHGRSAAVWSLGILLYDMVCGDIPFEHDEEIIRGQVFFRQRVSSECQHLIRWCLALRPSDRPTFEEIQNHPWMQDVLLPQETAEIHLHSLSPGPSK
Chain of Cyclin-dependent kinase 5/CDK5 activator 1 (Homo sapiens) (Q00535 whole entry): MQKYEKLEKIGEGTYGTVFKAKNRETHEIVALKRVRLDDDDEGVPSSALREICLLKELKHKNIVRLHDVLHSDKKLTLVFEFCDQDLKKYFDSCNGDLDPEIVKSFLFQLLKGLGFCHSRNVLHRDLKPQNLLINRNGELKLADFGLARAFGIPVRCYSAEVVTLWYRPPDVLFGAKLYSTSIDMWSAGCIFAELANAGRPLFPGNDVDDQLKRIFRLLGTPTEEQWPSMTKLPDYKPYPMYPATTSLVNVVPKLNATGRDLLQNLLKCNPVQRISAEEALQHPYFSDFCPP
Chain of Cyclin-dependent kinase 5/CDK5 activator 1 (Homo sapiens) (Q15078 99-307 partner limits assumed): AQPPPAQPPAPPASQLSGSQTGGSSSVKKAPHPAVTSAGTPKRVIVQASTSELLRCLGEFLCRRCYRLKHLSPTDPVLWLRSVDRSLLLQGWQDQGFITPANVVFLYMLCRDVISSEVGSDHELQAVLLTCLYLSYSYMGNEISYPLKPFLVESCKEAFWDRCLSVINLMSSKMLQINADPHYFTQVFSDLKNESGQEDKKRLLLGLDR

| SMILES | Activity [1] [%] | growth at 10 µM (MDA-MB-435) [%] | Activity (Sus scrofa domesticus) [%] | growth at 10 µM (UO-31) [%] | Activity [2] [%] | growth at 10 µM (SN12C) [%] | growth at 10 µM (HOP-62) [%] | growth at 10 µM (SW-620) [%] | IC50 [3] [µM] | growth at 10 µM (MCF7) [%] | Activity [4] [%] | growth at 10 µM (Hs-578T) [%] | Activity [5] [%] | Activity [6] [%] | Activity (Aurora kinase B) [%] | growth at 10 µM (TK-10) [%] | growth at 10 µM (HCT-116) [%] | growth at 10 µM (SK-MEL-28) [%] | growth at 10 µM (OVCAR-5) [%] | growth at 10 µM (SK-MEL-5) [%] | other results |
| --- | --- | --- | --- | --- | --- | --- | --- | --- | --- | --- | --- | --- | --- | --- | --- | --- | --- | --- | --- | --- | --- |
| CC(C)n1cc(C2=C(c3c[nH]c4ccccc34)C(=O)N(O)C2=O)c2ccccc21 | 73 | 102 | 72 | 67.9 | 2 | 101 | 98.6 | 106 | > 10 | 77.1 | 97 | 111 | 24 | 71 | 147 | 84.5 | 85.4 | 116 | 105 | 98.5 | growth at 10 µM (NCI-H460): 95.3%; growth at 10 µM (SK-OV-3): 102%; Activity [7]: 71%; growth at 10 µM (SF-268): 104%; IC50 (CDK9/cyclin T1): > 10 µM; growth at 10 µM (SNB-75): 82.6%; growth at 10 µM (SR): 85.7%; IC50 [8]: > 10 µM; growth at 10 µM (LOX IMVI): 58.8%; growth at 10 µM (RPMI-8226): 56.9%; growth at 10 µM (HL-60(TB)): 82.6% |
| O=C1C2=C(C(=O)N1O)c1cn(c3ccccc13)CCCCCCn1cc2c2ccccc21 | 107 | 111 | 103 | 80.3 | 48 | 106 | 107 | 98.6 | > 10 | 99.6 | 108 | 97.2 | 68 | 91 | 97 | 105 | 115 | 108 | 98.2 | 99.6 | growth at 10 µM (NCI-H460): 100%; growth at 10 µM (SK-OV-3): 106%; Activity [7]: 89%; growth at 10 µM (SF-268): 105%; IC50 (CDK9/cyclin T1): > 10 µM; growth at 10 µM (SNB-75): 91.4%; growth at 10 µM (SR): 91.9%; IC50 [8]: > 10 µM; growth at 10 µM (LOX IMVI): 79.3%; growth at 10 µM (RPMI-8226): 92.9%; growth at 10 µM (HL-60(TB)): 105% |
